# Test results published in paper PMC9376891 (Nature Communications, 2022).
# Target: Rae1_31-368-Nup98_157-213 heterodimer (Rae1-Nup98 complex) (Homo sapiens, UniProt P52948+P78406)
# Test: biochemical
# Type: binding
# Sequence of Rae1_31-368-Nup98_157-213 heterodimer (Rae1-Nup98 complex) (P78406 31-368 limits assumed): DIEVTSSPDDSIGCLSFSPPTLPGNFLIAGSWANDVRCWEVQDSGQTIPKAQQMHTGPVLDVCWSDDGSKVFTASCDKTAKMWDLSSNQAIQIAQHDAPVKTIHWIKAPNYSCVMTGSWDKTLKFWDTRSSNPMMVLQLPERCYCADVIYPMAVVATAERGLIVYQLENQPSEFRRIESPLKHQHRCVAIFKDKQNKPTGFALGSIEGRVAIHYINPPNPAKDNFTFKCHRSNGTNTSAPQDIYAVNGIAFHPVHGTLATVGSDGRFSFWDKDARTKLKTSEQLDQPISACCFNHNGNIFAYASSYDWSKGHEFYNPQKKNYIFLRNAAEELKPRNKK
# Sequence of Rae1_31-368-Nup98_157-213 heterodimer (Rae1-Nup98 complex) (P52948 157-213 partner limits assumed): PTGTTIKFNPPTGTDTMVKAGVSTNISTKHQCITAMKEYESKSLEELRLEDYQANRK
smiles,measurement,value
CSCC[C@H](NC(=O)[C@H](CCC(=O)O)NC(=O)[C@@H](N)CC(=O)O)C(=O)N[C@@H](CC(=O)O)C(=O)N[C@H](C(=O)N[C@@H](Cc1c[nH]cn1)C(=O)N[C@@H](CC(=O)O)C(=O)N1CCC[C@H]1C(=O)N[C@@H](CC(N)=O)C(=O)N[C@@H](CCC(N)=O)C(=O)N[C@@H](CC(C)C)C(=O)N[C@@H](CCCNC(=N)N)C(=O)N[C@@H](Cc1ccc(O)cc1)C(=O)O)[C@@H](C)O [VSV M NTE],Kd,117 µM
